Each structure is given as a SMILES string. Values after ≈ are worked out from the molar mass of the structure shown. Bounds are passed on as bounds.

Consider 25 compounds from patent US9822113B2, “Tricyclic compounds and process for preparation thereof” (Council of Scientific & Industrial Research, priority 2013, dated 2017).

The subject of one assay is Salmonella enterica strain AMC (ATCC #6539). Kind of assay: Antibiotic assay: MIC by Promega Bac Titer-Glo microbial cell viability assay. The class given is cell-based. The note with it: 24 hours treatment, inoculum ~5×10^4 CFU/mL, Mueller Hinton broth. The method, then: In a preferred embodiment, the novel a novel tricyclic compounds of formula (I) and formula (II) are evaluated for anti-microbial activity. The minimum inhibitory concentrations (MICs) is determined using the Promega Bac Titer-Glo microbial cell viability assay. The assays is carried out using Salmonella enterica strain AMC (ATCC #6539), Inocula of S. enterica prepared from 12-h broth cultures grown in Mueller Hinton broth and the suspensions were then adjusted to a turbidity of 0.5 McFarland. […] Bacterial cells were treated with hunanamycin analogs for 24 hours at ranges from 0.4 to 40 μg/mL and ciprofloxacin as a control ranging from 0.03 to 10 μg/mL. The OD600 measured using an Envision multi-modal plate reader (Perkin-Elmer, Inc.).
The minimum inhibitory concentrations (MICs) were determined using the Promega Bac Titer-Glo microbial cell viability assay, which measures cell viability by quantitation of ATP present, an indicator of metabolic activity of cells. The assays were carried out using Salmonella enterica strain AMC (ATCC #6539), Inocula of S. enterica were prepared from 12-h broth cultures grown in Mueller Hinton broth and the suspensions were then adjusted to a turbidity of 0.5 McFarland. […] Bacterial cells were treated with hunanamycin analogs for 24 hours at ranges from 0.4 to 40 μg/mL and ciprofloxacin as a control ranging from 0.03 to 10 μg/mL. The OD600 was measured using an Envision multi-modal plate reader (Perkin-Elmer, Inc.). The antibiotic assays were performed in Prof. John B. MacMillan's lab, Department of Biochemistry, University of Texas Southwestern Medical Center at Dallas, USA.
Regarding `Cc1cc2c3c(c1C)C(C)(C)CCn3c(=O)c(=O)n2C[C@@H](O)[C@H](O)[C@H](O)CO` [Compound 3, 7,7,8,9-tetramethyl-1-((2R,3S,4R)-2,3,4,5-tetrahydroxy-pentyl)-6,7-dihydro-1H,5H-pyrido[1,2,3-de]quinoxaline-2,3-dione], the “MIC” value worked out at 8 µg/mL (≈ 20.4 µM). Turning to `CC1(C)CCn2c(=O)c(=O)n(C[C@@H](O)[C@H](O)[C@H](O)CO)c3cccc1c32` [Compound 8, 7,7-dimethyl-1-((2R,3S,4R)-2,3,4,5-tetrahydroxypentyl)-6,7-dihydro-1H,5H-pyrido[1,2,3-de]quinoxaline-2,3-dione], the “MIC” value is greater than 16 µg/mL. The same measure, in the same setting: with `CC1(C)CCn2c(=O)n(Cc3cn(CCO)nn3)c3cccc1c32` [Compound 24, 1-((1-(2-hydroxyethyl)-1H-1,2,3-triazol-4-yl)methyl)-6,6-dimethyl-5,6-dihydro-4H-imidazo[4,5,1-ij]quinolin-2(1H)-one] the figure was greater than 16 µg/mL.

The assay is the same for the next values; noted with them: Salmonella enterica, ATCC6539, 24 h, 24 hours treatment, inoculum ~5×10^4 CFU/mL, Mueller Hinton broth.
Regarding `Cc1cc2c3c(c1C)C(C)(C)CCn3c(=O)c(=O)n2C[C@H](O)[C@H](O)[C@H](O)CO` (stereo in doubt) [Compound 2, 7,7,8,9-tetramethyl-1-((2S,3S,4R)-2,3,4,5-tetrahydroxypentyl)-6,7-dihydro-1H,5H-pyrido[1,2,3-de]quinoxaline-2,3-dione], the MIC turned out to be 8 µg/mL (≈ 20.4 µM).

`CC1(C)CCn2c(=O)n(Cc3cn(CCO)nn3)c3cccc1c32` [1-((1-(2-hydroxyethyl)-1H-1,2,3-triazol-4-yl)methyl)-6,6-dimethyl-5,6-dihydro-4H-imidazo[4,5,1-ij]quinolin-2(1H)-one]: the MIC worked out at 8 µg/mL (≈ 24.4 µM). As for `Cc1cc2c3c(c1C)C(C)(C)CCn3c(=O)c(=O)n2C[C@@H](O)[C@H](O)[C@H](O)CO` [7,7,8,9-tetramethyl-1-((2R,3S,4R)-2,3,4,5-tetrahydroxy-pentyl)-6,7-dihydro-1H,5H-pyrido[1,2,3-de]quinoxaline-2,3-dione], the MIC came to 8 µg/mL (≈ 20.4 µM).

Consider `Cc1cc2nc(OC[C@H](O)[C@H](O)[C@H](O)CO)c(=O)n3c2c(c1C)C(C)(C)CC3` [Compound 1, 7,7,8,9-tetramethyl-2-(((2S,3R,4R)-2,3,4,5-tetrahydroxy-pentyl)oxy)-6,7-dihydro-3H,5H-pyrido[1,2,3-de]quinoxalin-3-one], for which the MIC came out at 8 µg/mL (≈ 20.4 µM).

Compound `CC1(C)CCn2c(=O)c(=O)n(CC(O)CO)c3cccc1c32` (stereo not drawn) [Compound 9, 1-(2,3-dihydroxypropyl)-7,7-dimethyl-6,7-dihydro-1H,5H-pyrido[1,2,3-de]quinoxaline-2,3-dione] returned an MIC of 8 µg/mL (≈ 26.3 µM).

The assay is the same for the next values; noted with them: Salmonella enterica, ATCC6539, 24 h, 24 hours treatment, inoculum ~5×10^4 CFU/mL, Mueller Hinton broth, read-out: MIC.
Consider `Cc1cc2c3c(c1C)C(C)(C)CCn3c(=O)c(=O)n2C[C@H](O)[C@H](O)[C@H](O)CO` [Compound 2, 7,7,8,9-tetramethyl-1-((2S,3S,4R)-2,3,4,5-tetrahydroxypentyl)-6,7-dihydro-1H,5H-pyrido[1,2,3-de]quinoxaline-2,3-dione], for which the MIC worked out at 8 µg/mL (≈ 20.4 µM). Take `Cc1cc2c3c(c1C)C(C)(C)CCn3c(=O)c(=O)n2CC(O)CO` (stereo not drawn) [Compound 4, 1-(2,3-dihydroxypropyl)-7,7,8,9-tetramethyl-6,7-dihydro-1H,5H-pyrido[1,2,3-de]quinoxaline-2,3-dione]: the MIC is greater than 16 µg/mL. As for `Cc1cc2c3c(c1C)C(C)(C)CCn3c(=O)c(=O)n2CC(O)C(O)C(O)CO` (stereo not drawn) [Compound 5, 7,7,8,9-tetramethyl-1-(2,3,4,5-tetrahydroxypentyl)-6,7-dihydro-1H,5H-pyrido[1,2,3-de]quinoxaline-2,3-dione], the MIC turned out to be 4 µg/mL (≈ 10.2 µM). Turning to `CC1(C)CCn2c(=O)c(OC[C@H](O)[C@H](O)[C@H](O)CO)nc3cccc1c32` [Compound 6, 7,7-dimethyl-2-(((2S,3R,4R)-2,3,4,5-tetrahydroxypentyl)oxy)-6,7-dihydro-3H,5H-pyrido[1,2,3-de]quinoxalin-3-one], the MIC was greater than 16 µg/mL.

With `CC1(C)CCn2c(=O)c(=O)n(C[C@H](O)[C@H](O)[C@H](O)CO)c3cccc1c32` [Compound 7, 7,7-dimethyl-1-((2S,3S,4R)-2,3,4,5-tetrahydroxypentyl)-6,7-dihydro-1H,5H-pyrido[1,2,3-de]quinoxaline-2,3-dione], the MIC was greater than 16 µg/mL. Consider `CC1(C)CCn2c(=O)c(=O)n(C[C@@H](O)[C@H](O)[C@H](O)CO)c3cccc1c32` [Compound 8, 7,7-dimethyl-1-((2R,3S,4R)-2,3,4,5-tetrahydroxypentyl)-6,7-dihydro-1H,5H-pyrido[1,2,3-de]quinoxaline-2,3-dione], for which the MIC is greater than 16 µg/mL. Still for that read-out and setting: with `CCOC(=O)Cn1cc(Cn2c(=O)c(=O)n3c4c(cccc42)C(C)(C)CC3)nn1` [Compound 10, ethyl 2-(4-((7,7-dimethyl-2,3-dioxo-2,3,6,7-tetrahydro-1H,5H-pyrido[1,2,3-de]quinoxalin-1-yl)methyl)-1H-1,2,3-triazol-1-yl)acetate] the figure was greater than 16 µg/mL; with `COC1O[C@H](Cn2c(=O)c(=O)n3c4c(cccc42)C(C)(C)CC3)[C@@H](O)[C@H]1O` (stereo partly drawn) [Compound 11, 1-(((2R,3S,4R)-3,4-dihydroxy-5-methoxytetrahydrofuran-2-yl)methyl)-7,7-dimethyl-6,7-dihydro-1H,5H-pyrido[1,2,3-de]quinoxaline-2,3-dione], greater than 16 µg/mL. As to `CC1(C)CCn2c(=O)c(=O)n(C[C@@H](O)[C@H](O)CO)c3cccc1c32` [Compound 12, 7,7-dimethyl-1-((2R,3R)-2,3,4-trihydroxybutyl)-6,7-dihydro-1H,5H-pyrido[1,2,3-de]quinoxaline-2,3-dione], the MIC is greater than 16 µg/mL. With `CC1(C)CCn2c(=O)c(OC[C@H](O)[C@@H](O)CO)nc3cccc1c32` [Compound 13, 7,7-dimethyl-2-((2S,3S)-2,3,4-trihydroxybutoxy)-6,7-dihydro-3H,5H-pyrido[1,2,3-de]quinoxalin-3-one], the MIC turned out to be 16 µg/mL (≈ 47.9 µM).

For `CC(O)C(O)Cn1c(=O)c(=O)n2c3c(cccc31)C(C)(C)CC2` (stereo not drawn) [Compound 14, 1-(2,3-dihydroxybutyl)-7,7-dimethyl-6,7-dihydro-1H,5H-pyrido[1,2,3-de]quinoxaline-2,3-dione], the MIC was greater than 16 µg/mL. Regarding `CC1(C)CCn2c(=O)c(=O)n(CC(O)C(C)(C)O)c3cccc1c32` (stereo not drawn) [Compound 15, 1-(2,3-dihydroxy-3-methylbutyl)-7,7-dimethyl-6,7-dihydro-1H,5H-pyrido[1,2,3-de]quinoxaline-2,3-dione], the MIC was greater than 16 µg/mL. In the case of `CC1(C)CCn2c(=O)c(OC[C@H](O)CO)nc3cccc1c32` [Compound 16, (R)-2-(2,3-dihydroxypropoxy)-7,7-dimethyl-6,7-dihydro-3H,5H-pyrido[1,2,3-de]quinoxalin-3-one], the MIC was greater than 16 µg/mL.

For `CC1(C)CCn2c(=O)n(C[C@H](O)[C@H](O)[C@H](O)CO)c3cccc1c32` [Compound 21, 6,6-dimethyl-1-((2S,3S,4R)-2,3,4,5-tetrahydroxypentyl)-5,6-dihydro-4H-imidazo[4,5,1-ij]quinolin-2(1H)-one], the MIC stood at 4 µg/mL (≈ 11.9 µM). The same measure, in the same setting: with `CC1(C)CCn2c(=O)n(CC(O)CO)c3cccc1c32` (stereo not drawn) [Compound 23, 1-(2,3-dihydroxypropyl)-6,6-dimethyl-5,6-dihydro-4H-imidazo[4,5,1-ij]quinolin-2(1H)-one] the figure was greater than 16 µg/mL; with `CCOC(=O)Cn1cc(Cn2c(=O)n3c4c(cccc42)C(C)(C)CC3)nn1` [Compound 24b, Ethyl 2-(4-((6,6-dimethyl-2-oxo-5,6-dihydro-4H-imidazo[4,5,1-ij]quinolin-1(2H)-yl)methyl)-1H-1,2,3-triazol-1-yl)acetate], 8 µg/mL (≈ 21.7 µM); with `COC1O[C@H](Cn2c(=O)n3c4c(cccc42)C(C)(C)CC3)[C@@H](O)[C@H]1O` (stereo partly drawn) [Compound 25, 1-(((2R,3S,4R)-3,4-dihydroxy-5-methoxytetrahydrofuran-2-yl)methyl)-6,6-dimethyl-5,6-dihydro-4H-imidazo[4,5,1-ij]quinolin-2(1H)-one], 2 µg/mL (≈ 5.74 µM). For `CC1(C)CCn2c(=O)n(C[C@@H](O)[C@H](O)CO)c3cccc1c32` [Compound 26, 6,6-dimethyl-1-((2R,3R)-2,3,4-trihydroxybutyl)-5,6-dihydro-4H-imidazo[4,5,1-ij]quinolin-2(1H)-one], the MIC was greater than 16 µg/mL.

The next assay relates to Salmonella enterica.
Assay: not given
Particulars: against the bacterial pathogen Salmonella enterica; literature value; cited from earlier work.
`Cc1cc2c3c(c1C)C(C)(C)CCn3c(=O)c(=O)n2C[C@H](O)[C@H](O)[C@H](O)CO` (stereo in doubt) [Compound 2, 7,7,8,9-tetramethyl-1-((2S,3S,4R)-2,3,4,5-tetrahydroxypentyl)-6,7-dihydro-1H,5H-pyrido[1,2,3-de]quinoxaline-2,3-dione]: the “minimum inhibitory concentration (MIC)” value is 12.4 µM (≈ 4.87 µg/mL).
